Here are results for two compounds from PMC9304322, “Targeting retinoic acid receptor alpha-corepressor interaction activates chaperone-mediated autophagy and protects against retinal degeneration” (Nature Communications, 2022).

For data set [1], the system named is lamp2a mRNA. Nature of the data set: lamp2a mRNA in hippocampus of treated KFERQ-Dendra mice. The format is in vivo, mouse. To be noted: for Fig. 3e value relative to Vehicle: single replicate values, one sample t test; for mRNA levels of lamp2a (Fig. 4d), individual mice / mRNA levels of lamp2a (Fig. 4d), mean: hippocampus, i.p. 30 mg/kg bw daily for three days, vehicle mean = 1.000; for mRNA levels of lamp2a (Fig. 4d), individual mice: 30 mg/kg; for mRNA levels of lamp2a (Fig. 4d), mean: n = 4 mice. As for the experimental part:
C57BL/6 J mice wild-type (WT) and homozygous for the Pde6 mutation (rd10 mouse model of retinal degeneration) were obtained from The Jackson Laboratory and experiments were performed at the age indicated in each part of the study. C57BL/6 KFERQ-Dendra mice were generated by back-crossing FVB KFERQ-Dendra mice with wild-type C57BL/6 mice for 8 generations. Both male and female animals were used in this study in equally distribution groups. However, results from both sexes were pooled, because of absence of significant differences in any of the parameters analyzed after statistical analysis with a mixed model of two-way ANOVA sex and treatment as independent variables and the corresponding measure as dependent variable. All animals were housed in a barrier-controlled facility (19–23 °C 30–60% relative humidity; 12 h light/dark cycle) with ad libitum access to standard chow pellets (protein 19 gm%/carbohydrate 67 gm%/fat 4 gm%) and water. For animal administration of CA compounds, a formula containing 30% PEG 400 (Sigma, #8.0745), 65% of 5% glucose solution, 5% Tween 80 (Sigma, #P1754) was used to dissolve them. CA compounds were prepared freshly by adding 5% DMSO and sonicating for 1 h. Treatment of KFERQ-Dendra mice with the CA compounds was done at 4 months of age by i.p. daily injection of 30 mg/kg bw or vehicle for three consecutive days and tissues collected 6 h after the last injection. In the case of rd10 mice, animals were daily injected from P18 to P25 with CA77 (40 mg/kg bw). In the case of intravitreal administration, a single intravitreal injection was applied at P18 with CA77 (40 µM) in DMSO/PBS and the contralateral eye was injected with PBS and DMSO at same concentration. At P26, mice were sacrificed and eyes fixed overnight with 4% PFA (Sigma, #P6148) in PBS at 4 °C for immunofluorescence or retinas dissected and immediately frozen for biochemistry. Distribution of animals in the vehicle or treatment group was done randomly. ICR (CD-1) outbred 3 months old male mice from ENVIGO were used for the pharmacokinetic studies (see pharmacokinetic section for housing and handling details). All animal studies and procedures complied with ethical regulations, were performed in accordance with the European Union guidelines and the ARVO Statement for the Use of Animals in Ophthalmic and Vision Research and were approved by the Institutional Animal Care and Use Committee at the Albert Einstein College of Medicine, the CSIC Bioetica Comite and approved by the Comunidad de Madrid, PROEX232/17.
RNA was extracted from individual retinas or tissue sections (brain, liver). Total RNA from retinas was extracted using TRIzol Reagent (Invitrogen, # 15596-018), and reverse transcription was performed using the High-Capacity cDNA Reverse Transcription Kit (Applied Biosystems, # 4374966) according to the manufacturer’s instructions. Quantitative real-time PCR was performed in a Light Cycler 480 Instrument (Roche) with Taqman LightCycler 480 probes Master Mix (Roche, #4887301001) using Taqman assays (Life Technologies). For cells in culture, RNA was extracted using RNeasy Plus Mini Kit (Qiagen, #74034), and reverse transcription was performed using Superscript III (Invitrogen, #18080051). Quantitative RT-PCR analysis were performed using Power SYBR Green PCR Master Mix (Applied Biosystems, #4368708) on a StepOne Plus Real-Time PCR System (Applied Biosystems). Mm01184405_m1 probe (Thermofisher) was used for rhodopsin and the sequence of all the other probes used for qPCR is included in Supplementary Table 2.

Data set [2] concerns CaCo-2 cells. Description: Bidirectional permeability assay with CaCo-2 cells. The class given is in vitro ADME, human. To be noted: in words. The protocol:
In vitro solubility in the following conditions A) HBSS/HEPES 10 mM/BSA 0.1% pH 6 B) HBSS/HEPES 10 mM/BSA 0.1% pH 7.4 C) TRIS/BSA 0.1% PBS (pH 7.4 and at indicated doses were measured by Nephelometry using the NEPHELOstar Galaxy apparatus (BMG Lab Technologies). In vitro stability in human, mouse and rat liver microsomes and permeability using a bidirectional permeability assay with CaCo-2 cells (pH 6.5/7.4) assays were performed with standard methodology and analyzed by LC-MS/MS. at SIMM-SERVIER joint Biopharmacy Laboratory. ADME properties for CA39 and CA77 were predicted by QikProp (Schrödinger, LLC, Releases 2016-2020) software.
(In general: Caco-2 cells form a polarised layer with tight junctions and transporters.)

Data set [3] has as its system retinal explants of rd10 mice. Description: Ex-vivo retinal cultures of rd10 mice. Also noted: species or system mouse. To be noted: rd10 P21 to P24; 40 μM for 72 h; vs contralateral untreated explant. The protocol:
After removal of the eyes, all non-relevant tissue was removed from the neuroretina, which was then placed, photoreceptors upside down, in Millicell support inserts (Millipore, #PICM0RG50) and maintained in DMEM with 1 μM insulin (SIGMA, #I2643) for 72 h at 37 °C in a 5% CO2 atmosphere. Where indicated, retinas were incubated with 40 μM CA77 for the indicated times. The retinas were then washed twice with phosphate-buffered saline (PBS), fixed overnight in 4% paraformaldehyde (w/v) in 0.1 M phosphate buffer (pH 7.4) and processed. Retinas were separated along dorsoventral axis and nasal half was used for whole-mounts and temporal half was used for 12 µm cryosections.
Immunostainings were performed overnight at 4 °C using antibodies against visual (rod) arrestin and cone arrestin after initial permeabilization with 2% Triton X-100 for 1 h at RT and subsequent incubation with blocking solution (10% normal goat serum, 0.25% Triton X-100 in PBS). The retinas were then washed and incubated for 1 h with Alexa 568 or 647 (Invitrogen, #A-11004, #A32728), counterstained with DAPI (1 µg/mL, Sigma, # D9542), mounted in Fluoromount-G (Cultek, #100-01), and visualized by confocal microscopy in an SP5 confocal microscope (TCS SP5; Leica Microsystems). […]

Values joined by “and” are separate entries in the source; they are usually repeats but may differ in a detail not shown here. Identical values can stand only once.

For `Clc1ccc2c(c1)OCC(c1ccc(-c3ccccc3)cc1)=N2` [CA39], in data set [1], the “Fig. 3e value relative to Vehicle” value was 1.07 and 1.28 and 1.20 and 1.32 and 1.95 and 2.13; the “mRNA levels of lamp2a (Fig. 4d), individual mice” value was 1.581 and 1.814 and 1.628 and 1.163; the “mRNA levels of lamp2a (Fig. 4d), mean” value came out at 1.547.
`CC(=O)Nc1ccc(C2=Nc3ccc(Cl)cc3OC2)cc1` [CA77]: in data set [2], the membrane permeability entry was “highly membrane permeable”. In addition, in data set [1], the “Fig. 3e value relative to Vehicle” value is 2.04 and 2.28 and 1.87 and 1.53 and 2.54 and 2.31; the “mRNA levels of lamp2a (Fig. 4d), individual mice” value was 1.395 and 1.349 and 1.27 and 1.907; the “mRNA levels of lamp2a (Fig. 4d), mean” value turned out to be 1.480. Also, in data set [3], the “cones (cone arrestin-positive) in retinal explants” value is recorded as “higher preservation for cones” and the “number of rods (rod arrestin-positive) in retinal explants” value is “significant preservation of the number of rods”.
